The record followed here is PubChem BioAssay AID1241 (SRMLSC, 2008).

The structures appear in SMILES notation.

The assay can be described thus: NF-kB promoter reporter activators, neuronal cells, dose response, cell-based, SH-SY5Y, luciferase (AID 1241). As to conditions: fold induction.
As a reminder, the EC50 is the concentration needed to bring the measured effect to its halfway point. As for `O=C(/C=C/c1ccco1)N1CCc2ccccc21`, the EC50 is 1040 nM.

With `Cc1ccc(/C=N/Nc2nnc(Cl)c3ccccc23)cc1`, the EC50 was 1530 nM.

Consider `COc1cccc(/C=C/C(=O)Nc2ccc3c(c2)OCCO3)c1OC`, for which the 50% effective concentration (EC50) is 1050 nM.

On to `NC(=O)c1ccccc1N/C=C/C(=O)c1ccccc1`, for which the EC50 is 1040 nM.

As for `Cn1cc([N+](=O)[O-])c(C(=O)Nc2ccc(-c3nc4ccccc4[nH]3)cc2)n1`, the EC50 is 1410 nM.

Consider `O=C(/C=C\Nc1ccc(Br)cc1)c1cccnc1`, for which the EC50 is 1150 nM.

`N/C(=N\OC(=O)c1cc(Br)ccc1Cl)c1ccccn1`: the 50% effective concentration (EC50) is 2220 nM.

Take `O=C(Nc1ccc2sc3ccccc3c(=O)c2c1)c1ccccc1Cl`: the EC50 is 7040 nM.

With `Cc1nnc(SCC(=O)Nc2ccc(-c3nc4ccccc4s3)cc2)s1`, the EC50 was 328 nM.

Consider `Fc1ccccc1Cn1nnc(-c2ccc3c(c2)OCO3)n1`, for which the EC50 is 8430 nM.

As to `CCOC(=O)Cc1ccc2sc(-c3ccccc3)nc2c1`, the EC50 is 6450 nM.

For the compound `Cc1ccc(N/N=C(\C#N)C(=N)N2CCCCCC2)cc1`, the 50% effective concentration (EC50) is 1850 nM.

In the case of `Cc1ccc2nc(-c3ccc(NC(=O)CNC4CC4)cc3)sc2c1`, the concentration for a half-maximal effect (EC50) is 1690 nM.

Take `c1ccc2c(c1)CCN(c1nc3cc4c(cc3s1)OCO4)C2`: the concentration giving a half-maximal response (EC50) is 524 nM.

On to `Cn1/c(=N/N=C/c2ccccn2)sc2ccccc21`, for which the EC50 is 6330 nM.

Consider `COc1ccc(-c2nc(-c3ccc(Br)cc3)no2)c(OC)c1`, for which the EC50 was 2560 nM.

For `Cc1cc(N/C=C/C(=O)c2cccs2)ccc1F`, the 50% effective concentration (EC50) is 2220 nM.

For `COc1cccc(NC(=O)Nc2ccc3c(c2)nc(C)n3C)c1`, the EC50 was 9300 nM.

In the case of `O=C(Nc1ccc(N2CCCC2)c(Cl)c1)c1ccco1`, the EC50 was 1680 nM.

For the compound `COc1ccc(OCc2cccc(C(=O)O)c2)cc1`, the concentration giving a half-maximal response (EC50) was 964 nM.

With `COc1ccc(-c2cn3cc(C)ccc3n2)cc1OC`, the concentration giving a half-maximal response (EC50) was 3370 nM.

Turning to `COC(=O)c1sc2nc3c(cc2c1N)CCCC3`, the concentration giving a half-maximal response (EC50) was 4060 nM.

For the compound `CC(C)CC(=O)Nc1ccc(-c2cn3ccsc3n2)cc1`, the 50% effective concentration (EC50) was 8510 nM.

Turning to `O=C(Nc1ccc2c(c1)CCC2)c1ccc(F)cc1`, the EC50 was 217 nM.

With `O=C(Nc1nc2c(s1)CCCC2)c1ccc(Br)o1`, the EC50 is 1290 nM.

With `COc1ccc2nc(SCc3ccccc3)nc(C)c2c1`, the EC50 is 6570 nM.

On to `COC(=O)c1ccc(-c2nc3ccccc3[nH]2)cc1`, for which the EC50 is 946 nM.

For the compound `O=C(O)c1ccc(/C=N/Nc2ccc(F)cc2F)cc1`, the EC50 was 1230 nM.

Turning to `Cc1ccc2nc(-c3sc4nc(C)ccc4c3N)[nH]c2c1`, the EC50 was 765 nM.

As to `COc1ccc(NC(=O)c2nc3ccccc3s2)cc1`, the EC50 was 461 nM.

As to `COc1ccc(/C=C/c2nc3ccccc3n2Cc2ccc(OC)c(OC)c2)cc1`, the EC50 was 943 nM.

`NC(=O)c1ccsc1NC(=O)c1ccc2c(c1)CCCC2`: the EC50 was 455 nM.

For the compound `Cc1ccsc1/C=N/Nc1cccc(C(=O)O)c1`, the EC50 was 1050 nM.

For the compound `O=C(NC(=S)Nc1ccc2c(c1)OCCO2)c1ccccc1F`, the EC50 is 1740 nM.

As for `COc1ccc(-c2cc(-c3ccccc3O)[nH]n2)cc1OC`, the EC50 is 2440 nM.

As to `O=C(OCC(=O)c1cccs1)c1ccccc1`, the EC50 was 12600 nM.

For the compound `CC(/C=N/NC(=O)c1ccco1)=C\c1ccccc1`, the EC50 was 4660 nM.

Regarding `O=C(CSc1cccc[n+]1[O-])c1cc(Cl)ccc1Cl`, the EC50 is 1950 nM.

For `CC(=O)Nc1nc2ccc(-c3nc4ccccc4o3)cc2s1`, the EC50 is 1460 nM.

With `O=C(Nc1ccc2c(c1)OCCO2)c1ccc(Br)s1`, the EC50 is 609 nM.

For `O=C(Nc1nc2ccccc2[nH]1)c1cc2ccccc2o1`, the EC50 was 1230 nM.

`NS(=O)(=O)c1cc(C(=O)OCC(=O)c2ccc3c(c2)OCCO3)ccc1Cl`: the 50% effective concentration (EC50) is 3470 nM.

For `COc1ccc2nc(-c3ccccc3)[nH]c2c1`, the EC50 is 1320 nM.

Turning to `Cc1cccc(NC(=O)c2cnc3sccn3c2=O)c1`, the EC50 is 998 nM.

Consider `CN(C)C(=S)Nc1nc2ccccc2s1`, for which the EC50 is 15100 nM.

Regarding `CC(C)c1ccc(Nc2nc(CC(=O)O)cs2)cc1`, the EC50 was 5810 nM.

Regarding `CC(=O)Nc1ccc(-c2csc(Nc3cccc(C)n3)n2)cc1`, the EC50 was 1000 nM.

As to `COc1cc(/C=C(/C(=O)c2cccs2)c2nc3ccccc3[nH]2)cc(OC)c1O`, the concentration giving a half-maximal response (EC50) was 7670 nM.

Regarding `Clc1ccc2nc(N3CCCCC3)[nH]c2c1`, the EC50 was 7790 nM.

Take `Cc1ccc(NC(=O)N2CCc3ccccc32)cc1C`: the EC50 was 361 nM.

Take `Cc1ccc(-c2nc3cc(Cl)ccc3o2)cc1`: the EC50 is 1750 nM.

For `CCOC(=O)c1c(N)sc(C(=O)Nc2ccccc2)c1C`, the EC50 was 1930 nM.

For the compound `CCOc1ccc(OCc2cccc(C(=O)O)c2)cc1`, the EC50 was 1850 nM.

For the compound `Oc1sc(C=Nc2ccccc2)c2ccccc12`, the 50% effective concentration (EC50) is 10500 nM.

In the case of `O=C(/C=C\Nc1ccc2c(c1)OCO2)c1ccc2c(c1)OCO2`, the EC50 is 996 nM.

As for `Cc1[nH]n(-c2cccc(Cl)c2)c(=O)c1C=NCc1ccco1`, the EC50 was 4940 nM.

On to `Nc1ccccc1C(=O)OCCOc1ccccc1`, for which the EC50 was 910 nM.

`Cc1ccc(NCc2nc3ccccc3n2C)cc1`: the EC50 is 3360 nM.

For the compound `O=C(Nc1ccc(Cl)cc1)N1CCC(c2ccccc2)C1` (stereo unspecified), the EC50 was 10600 nM.

In the case of `CCCCn1cnc2sc(-c3ccccc3)cc2c1=O`, the EC50 was 12000 nM.

As to `c1ccc(Nc2nc(-c3ccncc3)cs2)nc1`, the EC50 is 1640 nM.
